This passage reports IC50 and EC50 results from patent US12441704B2, “Compounds active towards nuclear receptors” (NUEVOLUTION A/S, priority 2019, dated 2025).

Experiment [1] relates to IL-17A secretion in activated PBMCs. Nature of the experiment: IL-17A secretion in activated PBMCs. In kind it is cell-based, human. The note with it: Homo sapiens, PBMC, 48 h, human PBMCs stimulated with CD3/CD28 Dynabeads for 48 h; absolute IC50. The protocol: Heparin-treated whole blood from healthy human volunteers was supplied from Hospital de Sant Pau (Barcelona) under the approval of the local ethical review board for human studies (Hospital de Sant Pau, Barcelona, Spain). Human peripheral blood mononuclear cells (PBMCs) were isolated from healthy human volunteers by density gradient centrifugation using the Ficoll-Paque (GE Healthcare). […] Cells were seeded in 384-well plate (DiscoverX), at 40,000 cells per well and cultured 2 h at 37° C. and 5% CO2.
Dose-response curves with compounds were prepared using a 5-fold serial dilution (10 concentrations) in 100% DMSO and further diluted 100-fold in culture medium. Compound solutions (5 μL) were added to the plate containing cells (final DMSO concentration of 0.1%) and incubated for 30 min. Then, cells were stimulated with CD3/CD28 Dynabeads (ThermoFisher, at a bead-to-cell ratio of 1:1) for 48 h at 37° C. and 5% CO2.
IL-17A levels in supernatant were determined by immunoassay using hIL17A QBeads (Intellicyt) and by fluorescence analysis in iQue flow cytometer following the manufacturer's instructions. Inhibition of IL-17A secretion was calculated using the following formula: inhibition=100*[1−[(x−mean basal condition)/(mean top condition−mean basal condition)]]. Activated DMSO-treated cells were used as top condition and activated GNE09461 (10 μM)-treated cells as basal condition.

The target of experiment [2] is T1, RORγ ligand-binding domain fused to Gal4 (Homo sapiens, UniProt P51449).
T1 construct: Gal4 (galactose-responsive transcription factor); expressed in transfected cells; host or cells: HEK293
T1 sequence (P51449 269-508 limits assumed): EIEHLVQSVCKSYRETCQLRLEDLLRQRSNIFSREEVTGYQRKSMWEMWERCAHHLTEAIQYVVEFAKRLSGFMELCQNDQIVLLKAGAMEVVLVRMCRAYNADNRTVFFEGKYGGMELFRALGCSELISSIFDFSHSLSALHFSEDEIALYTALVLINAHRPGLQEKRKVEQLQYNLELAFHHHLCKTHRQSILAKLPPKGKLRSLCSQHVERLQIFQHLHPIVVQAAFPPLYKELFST
Briefly: RORγ Reporter Assay (Gal4). In kind it is cell-based. The gist of the method:
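HEK293 cells transiently co-transfected with the Gal4-fused RORγ LBD and a UAS-luciferase reporter were exposed to compounds for 24 h at 37 °C (0.1% DMSO final). Luminescence was read, and percent reduction of RORγ activity was calculated relative to vehicle-average RLU.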
On the technique in general: A reporter such as luciferase makes a cellular process visible.

[3] abbreviates: HEK293 cells co-transfected with RORγ LBD-Gal4 and luciferase reporter, 24 h incubation, absolute EC50, read-out: EC50.
Setting [4] is: compounds of the present disclosure, value from Table 2 herein, read-out: Gal4 assay EC50.

Read-outs that look alike come from different tables or passages of the source.

For orientation: IC50 means the concentration needed to halve the response being measured. Lower therefore signals higher potency. In general, EC50 refers to the concentration that produces a half-maximal response.

Consider `NC(=O)CN1CCC(O)(CNc2ncnc(N(Cc3ccc(C(F)(F)F)nc3)C3CC3)c2F)CC1` [Example A7-11, 2-(4-(((6-(cyclopropyl((6-(trifluoromethyl)pyridin-3-yl)methyl)amino)-5-fluoropyrimidin-4-yl)amino)methyl)-4-hydroxypiperidin-1-yl)acetamide], for which the concentration for half-maximal inhibition (IC50) in experiment [1] was found to be 200 nM. Further, the EC50 in experiment [2] (setting [3]) is 72 nM; in experiment [2] (setting [4]), below 100 nM.
Regarding `NC(=O)C(CO)N1CC[C@@H](CNc2ncnc(N(Cc3ccc(C(F)(F)F)cc3)C3CC3)c2F)[C@H](O)C1` (mixture of isomers) [Example A7-65, rac-2-((3R,4R)-4-(((6-(cyclopropyl(4-(trifluoromethyl)benzyl)amino)-5-fluoropyrimidin-4-yl)amino)methyl)-3-hydroxypiperidin-1-yl)-3-hydroxypropanamide], it took 12 nM to reach half-maximal inhibition in experiment [1] (IC50). The EC50 in experiment [2] (setting [3]) amounted to 5.8 nM.
The corresponding values for `CCN(Cc1ccc(C(F)(F)F)cc1)c1ncnc(NC[C@@]2(O)CCN(C(C(N)=O)c3ccncc3)C[C@@H]2O)c1F` (relative stereo) [Example D5-07, rel-2-((3R,4R)-4-(((6-(ethyl(4-(trifluoromethyl)benzyl)amino)-5-fluoropyrimidin-4-yl)amino)methyl)-3,4-dihydroxypiperidin-1-yl)-2-(pyridin-4-yl)acetamide] are 2.5 nM and 4.5 nM.
As for `NC(=O)CN1CCC(CO)(CNc2ncnc(N(Cc3ccc(C(F)(F)F)nc3)C3CC3)c2F)CC1` [Example A7-45, 2-(4-(((6-(cyclopropyl((6-(trifluoromethyl)pyridin-3-yl)methyl)amino)-5-fluoropyrimidin-4-yl)amino)methyl)-4-(hydroxymethyl)piperidin-1-yl)acetamide], the midpoint of inhibition in experiment [1], the IC50, lay at 80 nM. For the same molecule, the EC50 in experiment [2] (setting [3]) is 46 nM; in experiment [2] (setting [4]), below 100 nM.
In experiment [1], `NC(=O)CN1CC[C@@H](CNc2ncnc(N(Cc3ccc(OC(F)F)cc3)C3CC3)c2F)[C@H](O)C1` (racemic) [Example A7-43, rac-2-((3R,4R)-4-(((6-(cyclopropyl(4-(difluoromethoxy)benzyl)amino)-5-fluoropyrimidin-4-yl)amino)methyl)-3-hydroxypiperidin-1-yl)acetamide] came in with an IC50 of 35 nM. Besides, the EC50 in experiment [2] (setting [3]) was determined as 11 nM.
On to `NC(=O)CN1CC[C@@H](CNc2ncnc(N(Cc3ccc(-n4cccn4)cc3F)C3CC3)c2F)[C@H](O)C1` (racemic) [Example A7-76, rac-2-((3R,4R)-4-(((6-(cyclopropyl(2-fluoro-4-(1H-pyrazol-1-yl)benzyl)amino)-5-fluoropyrimidin-4-yl)amino)methyl)-3-hydroxypiperidin-1-yl)acetamide], for which the IC50 in experiment [1] was determined as 92 nM. Besides, in experiment [2] (setting [3]), the concentration giving a half-maximal response (EC50) turned out to be 6.6 nM.
Taken in the same sequence, the figures for `NC(=O)C(c1ccncc1)N1CC[C@@H](CNc2ncnc(N(Cc3ccc(C(F)(F)F)cc3)C3CC3)c2F)[C@H](O)C1` (mixture of isomers) [Example A7-63, rac-2-((3R,4R)-4-(((6-(cyclopropyl(4-(trifluoromethyl)benzyl)amino)-5-fluoropyrimidin-4-yl)amino)methyl)-3-hydroxypiperidin-1-yl)-2-(pyridin-4-yl)acetamide] were 2.3 nM and 3.4 nM.
Taken in the same sequence, the figures for `NC(=O)CN1CC[C@H](CNc2ncnc(N(Cc3ccc(C(O)(C(F)(F)F)C(F)(F)F)cc3)C3CC3)c2F)[C@@H](O)C1` (stereo in doubt) [Example A7-54-2, rel-2-((3R,4R)-4-(((6-(cyclopropyl(4-(1,1,1,3,3,3-hexafluoro-2-hydroxypropan-2-yl)benzyl)amino)-5-fluoropyrimidin-4-yl)amino)methyl)-3-hydroxypiperidin-1-yl)acetamide] were 6.2 nM and 2.5 nM.
The corresponding values for `CCN(Cc1ccc(C(F)(F)F)cc1F)c1ncnc(NC[C@H]2CCN(CC(N)=O)C[C@@H]2O)c1F` (stereo in doubt) [Example A7-26-2, rel-2-((3R,4R)-4-(((6-(ethyl(2-fluoro-4-(trifluoromethyl)benzyl)amino)-5-fluoropyrimidin-4-yl)amino)methyl)-3-hydroxypiperidin-1-yl)acetamide] are 29 nM and 8.5 nM.
In experiment [1], `NC(=O)CN1CC[C@@H](CNc2ncnc(N(Cc3ccc(C(O)(C(F)(F)F)C(F)(F)F)cc3)C3CC3)c2F)[C@H](O)C1` (stereo in doubt) [Example A7-54, rac-2-((3R,4R)-4-(((6-(cyclopropyl(4-(1,1,1,3,3,3-hexafluoro-2-hydroxypropan-2-yl)benzyl)amino)-5-fluoropyrimidin-4-yl)amino)methyl)-3-hydroxypiperidin-1-yl)acetamide] yielded a half-inhibitory concentration (IC50) of 5.6 nM. Also, in experiment [2] (setting [3]), the half-maximal effective concentration (EC50) came out at 0.6 nM.
The corresponding values for `NC(=O)CN1CC[C@H](CNc2ncnc(N(Cc3ccc(C(F)(F)F)cc3)C3CC3)c2F)[C@@H](O)C1` (stereo in doubt) [Example A7-01-2, rel-2-((3R,4R)-4-(((6-(Cyclopropyl(4-(trifluoromethyl)benzyl)amino)-5-fluoropyrimidin-4-yl)amino)methyl)-3-hydroxypiperidin-1-yl)acetamide] are 2.7 nM and 1.5 nM.
The corresponding values for `NC(=O)C(CO)N1CCC(O)(CNc2ncnc(N(Cc3ccc(C(F)(F)F)cc3)C3CC3)c2F)CC1` (centres unmarked) [Example A7-68, 2-(4-(((6-(cyclopropyl(4-(trifluoromethyl)benzyl)amino)-5-fluoropyrimidin-4-yl)amino)methyl)-4-hydroxypiperidin-1-yl)-3-hydroxypropanamide] are 21 nM and 20 nM.
In the case of `NC(=O)CN1CCC(CO)(CNc2ncnc(N(Cc3ccc(C(F)(F)F)cc3)C3CC3)c2F)CC1` [Example A7-51, 2-(4-(((6-(cyclopropyl(4-(trifluoromethyl)benzyl)amino)-5-fluoropyrimidin-4-yl)amino)methyl)-4-(hydroxymethyl)piperidin-1-yl)acetamide], in experiment [1], inhibition was half-maximal at 7.3 nM (IC50). Besides, the half-maximal effective concentration (EC50) in experiment [2] (setting [3]) was determined as 2.4 nM.
The corresponding values for `CCN(Cc1ccc(C(F)(F)F)cc1)c1ncnc(NC[C@@H]2CCN(C(C(N)=O)c3ccncc3)C[C@H]2O)c1F` (mixture of isomers) [Example A7-62, rac-2-((3R,4R)-4-(((6-(Ethyl(4-(trifluoromethyl)benzyl)amino)-5-fluoropyrimidin-4-yl)amino)methyl)-3-hydroxypiperidin-1-yl)-2-(pyridin-4-yl)acetamide] are 7.2 nM and 1.8 nM.
In the case of `NC(=O)CN1CC[C@@H](CNc2ncnc(N(Cc3ccc(C(F)(F)F)cn3)C3CC3)c2F)[C@H](O)C1` (single isomer, unassigned) [Example A7-14-1], the half-maximal inhibitory concentration (IC50) in experiment [1] was found to be 38 nM. The EC50 was 8.3 nM in experiment [2] (setting [3]) and below 100 nM in experiment [2] (setting [4]).
For the molecule `NC(=O)CN1CC[C@H](CNc2ncnc(N(Cc3ccc(C(F)(F)F)nc3)C3CC3)c2F)[C@@H](O)C1` (single isomer, unassigned) [Example A7-28-2], the half-maximal inhibitory concentration (IC50) in experiment [1] amounted to 81 nM. Moreover, in experiment [2] (setting [4]), the EC50 was below 100 nM.
